Assays:
resting platelets = experiment: Platelet aggregation induced by peptide in resting washed platelets (activation); format: cell-based, human (healthy volunteers); conditions: for Activation: platelet aggregation in resting platelets after 6 minutes incubation with peptide, pal-peptides 20 μM, tat-peptides 50 μM, optical density, aggregometer, mean, n>=3; for Activation / Activation, donor 20 08 13 / Activation, 5μM / Activation, 20μM / Activation, donor 14 06 13: unit assumed; for Aggregation before TRAP activation, donor h: replicate donor h; for Aggregation before TRAP activation, donor i: replicate donor i; for Aggregation before TRAP activation, donor j: replicate donor j; for Activation, donor 20 08 13: replicate 20_08_13; for Activation, donor 20 08 13 / Activation, donor 22_08_13_DONOR1 / Activation, donor 22_08_13_DONOR2 / Activation, donor 14 06 13 / Activation, donor 18_06_13 / Activation, donor 20_06_13: SDC4 peptides and controls, 20 μM; for Activation, donor 22_08_13_DONOR1: replicate 22_08_13_DONOR1; for Activation, donor 22_08_13_DONOR2: replicate 22_08_13_DONOR2; for Activation, 5μM / Activation, 20μM: S3 Table, n=3; for Activation, 5μM: peptide 5 μM; for Activation, 20μM: peptide 20 μM; for Activation, donor 14 06 13: replicate 14_06_13; for Activation, donor 18_06_13: replicate 18_06_13; for Activation, donor 18_06_13 / Activation, donor 20_06_13: in % (unit assumed); for Activation, donor 20_06_13: replicate 20_06_13
Protocol: (§1) Blood was drawn from healthy volunteers into a syringe containing a final volume of 15% Acid Citrate Dextrose (ACD). The blood/ACD mixture was then aliquoted into 15 ml Cellstar tubes, at volumes of 5ml per tube, and centrifuged at 150 rcf for 10 minutes to obtain platelet rich plasma (PRP). PRP was then transferred to a 50ml tube using a pipette. The pH was then adjusted to 6.5. Prostaglandin (PGE1) was then added with a final concentration of 1μM. The PRP was then centrifuged at 750 rcf. After centrifugation the platelet poor plasma (PPP) was discarded and the pellet was resuspended in buffer A (6 mM dextrose, 130 mM NaCl, 9 mM NaHCO3, 10 mM sodium citrate, 10 mM Tris base, 3 mM KCl, 0.81 mM KH2PO4 and 0.9 mM MgCl26H2O, pH 7.4). A platelet concentration of 3x10^5/μl or 1x10^6/μl was obtained by dilution depending on the experiment in which they were used. Platelets were left to rest for 45 minutes and supplemented with 1.8mM calcium chloride prior to use.
(§2) A platelet concentration of 3x10^5 /μl was used when performing standard aggregations and a concentration of 1x10^6 /μl was used for sample preparation for western blot analysis. The extent of platelet aggregation was measured by quantifying the optical density of the samples using the Bio-Data PAP-8 aggregometer (platelet aggregation profiler, Horsham, PA, USA). A temperature of 37°C was maintained and samples were stirred using magnets spinning at 1100 rpm. 200 μl of washed platelets was added to each aggregation tube. Different volumes of buffer, peptide and TRAP were added to achieve the desired concentrations. Peptide/buffer was added to each well after two minutes. TRAP, with a final concentration depending on the experiment, was added 6 minutes later and data was collected for an additional 7 minutes.

TRAP-activated platelets = experiment: Inhibition of TRAP-induced platelet aggregation after pre-incubation with peptide; format: cell-based, human (healthy volunteers); conditions: for Aggregation after TRAP activation, donor h: replicate donor h; for Aggregation after TRAP activation, donor i: replicate donor i; for Aggregation after TRAP activation, donor j: replicate donor j; for Inhibition, donor 20_08_13: replicate 20_08_13; for Aggregation (inhibition effects of syndecan-derived peptides): S2 Table A, n=6; for Inhibition, donor 14_06_13: replicate 14_06_13; for Inhibition, donor 18_06_13: replicate 18_06_13; for Inhibition, donor 20_06_13: replicate 20_06_13
Protocol: as §1, §2

[1] = platelet aggregation induced by 4 μM TRAP in platelets pre-incubated with peptide (low value = inhibition), pal-peptides 20 μM, tat-peptides 50 μM, mean, n>=3
[2] = TRAP 4 μM, pal 20 μM, tat 50 μM
[3] = replicate 22_08_13_DONOR1, peptide 20 μM, TRAP 4 μM
[4] = replicate 22_08_13_DONOR2, peptide 20 μM, TRAP 4 μM
[5] = S3 Table, peptide 5 μM, aggregation after TRAP, n=3
[6] = S3 Table, peptide 20 μM, aggregation after TRAP, n=3

| Substance | Activation (resting platelets) [%] | Aggregation before TRAP activation, donor h (resting platelets; pal 20 μM, tat 50 μM) | Aggregation before TRAP activation, donor i (resting platelets; pal 20 μM, tat 50 μM) | Aggregation before TRAP activation, donor j (resting platelets; pal 20 μM, tat 50 μM) | Platelet aggregation remaining after TRAP (low = inhibition) (TRAP-activated platelets; [1]) | Aggregation after TRAP activation, donor h (TRAP-activated platelets; [2]) | Aggregation after TRAP activation, donor i (TRAP-activated platelets; [2]) | Aggregation after TRAP activation, donor j (TRAP-activated platelets; [2]) | Activation, 5μM (resting platelets) [%] | Activation, 20μM (resting platelets) [%] | Platelet aggregation remaining after TRAP (low = inhibition) (TRAP-activated platelets; [5]) | Platelet aggregation remaining after TRAP (low = inhibition) (TRAP-activated platelets; [6]) | further results |
| --- | --- | --- | --- | --- | --- | --- | --- | --- | --- | --- | --- | --- | --- |
| SSTLSKKRPPPPPPGHKRTLSD-tat-(NH2) [AMAP1-tat, ASAP1/DDEF2 peptide with C-terminal tat] | 4 | 4 | 3 | 5 | 72 | 76 | 62 | 79 |  |  |  |  |  |
| MGYRKEDKDKS [pal-SDC4_JM Control 2, scrambled control of pal-SDC4_JM, reference compound] |  |  |  |  |  |  |  |  |  |  |  |  | Activation, donor 20 08 13 (resting platelets): 2%; Activation, donor 22_08_13_DONOR1 (resting platelets): 1; Activation, donor 22_08_13_DONOR2 (resting platelets): 2; Summary of effects of SDC4-derived palmitylated peptides and scrambled controls, 20μM (TRAP-activated platelets; S2 Table B / S2 Fig, 20 μM, activation of resting platelets and inhibition of aggregation induced by 4 μM TRAP, in words): Inhibitor; Inhibition, donor 20_08_13 (TRAP-activated platelets; peptide 20 μM, TRAP 4 μM): 4; Platelet aggregation remaining after TRAP (low = inhibition) (TRAP-activated platelets; [3]): 3; Platelet aggregation remaining after TRAP (low = inhibition) (TRAP-activated platelets; [4]): 14 |
| Pal-RMKKKDEGSYD-APTNEFYA [pal-SDC4-JM U SDC4-tail, palmitylated chimeric peptide of SDC4 juxtamembrane and tail regions] |  |  |  |  |  |  |  |  | 2 | 2 | 63 | 69 | Activation, donor 14 06 13 (resting platelets): 3%; Activation, donor 18_06_13 (resting platelets): 2; Activation, donor 20_06_13 (resting platelets): 2; Activation, donor 20 08 13 (resting platelets): 3%; Activation, donor 22_08_13_DONOR1 (resting platelets): 1; Activation, donor 22_08_13_DONOR2 (resting platelets): 2; Aggregation (inhibition effects of syndecan-derived peptides) (TRAP-activated platelets; peptide 20 μM, TRAP 4 μM, mean): 69; Inhibition, donor 14_06_13 (TRAP-activated platelets; peptide 20 μM, TRAP 4 μM): 75; Inhibition, donor 18_06_13 (TRAP-activated platelets; peptide 20 μM, TRAP 4 μM): 62; Inhibition, donor 20_06_13 (TRAP-activated platelets; peptide 20 μM, TRAP 4 μM): 81; Inhibition, donor 20_08_13 (TRAP-activated platelets; peptide 20 μM, TRAP 4 μM): 70; Platelet aggregation remaining after TRAP (low = inhibition) (TRAP-activated platelets; [3]): 62; Platelet aggregation remaining after TRAP (low = inhibition) (TRAP-activated platelets; [4]): 68 |
| pal-KVGAAKR-FAKFEEERAR [B14p ITGA2b-JM2 U ITGB3-middle1, palmitylated chimeric peptide] |  |  |  |  |  |  |  |  | 2 | 0 | 71 | 3 |  |
| Pal-RMKKKDEGSYD-LGKKPIYKK [pal-SDC4-JM U SDC4-middle, palmitylated chimeric peptide of SDC4 juxtamembrane and middle regions] |  |  |  |  |  |  |  |  | 2 | 4 | 61 | 19 | Activation, donor 14 06 13 (resting platelets): 0%; Activation, donor 18_06_13 (resting platelets): 2; Activation, donor 20_06_13 (resting platelets): 1; Activation, donor 20 08 13 (resting platelets): 6%; Activation, donor 22_08_13_DONOR1 (resting platelets): 6; Activation, donor 22_08_13_DONOR2 (resting platelets): 7; Aggregation (inhibition effects of syndecan-derived peptides) (TRAP-activated platelets; peptide 20 μM, TRAP 4 μM, mean): 19; Inhibition, donor 14_06_13 (TRAP-activated platelets; peptide 20 μM, TRAP 4 μM): 26; Inhibition, donor 18_06_13 (TRAP-activated platelets; peptide 20 μM, TRAP 4 μM): 9; Inhibition, donor 20_06_13 (TRAP-activated platelets; peptide 20 μM, TRAP 4 μM): 47; Inhibition, donor 20_08_13 (TRAP-activated platelets; peptide 20 μM, TRAP 4 μM): 12; Platelet aggregation remaining after TRAP (low = inhibition) (TRAP-activated platelets; [3]): 8; Platelet aggregation remaining after TRAP (low = inhibition) (TRAP-activated platelets; [4]): 14 |
| pal-KVGFFKR-TLELDRLMASLS [B20p ITGA2b-JM U TGFB1I1-LD, palmitylated chimeric peptide] |  |  |  |  |  |  |  |  | 2 | 2 | 71 | 66 |  |
| pal-TLELDRLMASLS [B23p TGFB1I1-LD, palmitylated TGFB1I1 LD peptide] |  |  |  |  |  |  |  |  | 2 | 3 | 73 | 70 |  |
| tat-EGERALPSIPKLAN-(NH2) [tat-FAK_1, tat peptide from PTK2/FAK1] | 4 | 4 | 4 | 4 | 72 | 76 | 66 | 74 |  |  |  |  |  |
| tat-SKPIGPDDAIDALSSDFTS-(NH2) [tat-CAST_2, tat peptide from calpastatin (CAST)] | 3 | 3 | 4 | 4 | 74 | 78 | 69 | 76 |  |  |  |  |  |
| pal-KVGAAKR-WEQLLTTIARTINEVENQI [B13p ITGA2b-JM2 U ACTN1-VBS, palmitylated chimeric peptide] |  |  |  |  |  |  |  |  | 3 | 12 | 75 | 63 |  |
| tat-GRDKYKTLRQIRQGNTKQRIDEFESM [tat-MSN, tat peptide from MSN] | 3 | 3 | 3 | 4 | 73 | 76 | 68 | 75 |  |  |  |  |  |
| NSDTPPRPDRLPL-tat [PTPN12-tat, PTPN12 peptide with C-terminal tat] | 3 |  |  |  | 75 |  |  |  |  |  |  |  | Aggregation before TRAP activation, donor a (resting platelets; replicate donor a, pal 20 μM, tat 50 μM): 3; Aggregation before TRAP activation, donor b (resting platelets; replicate donor b, pal 20 μM, tat 50 μM): 4; Aggregation before TRAP activation, donor c (resting platelets; replicate donor c, pal 20 μM, tat 50 μM): 4; Aggregation before TRAP activation, donor d (resting platelets; replicate donor d, pal 20 μM, tat 50 μM): 4; Aggregation before TRAP activation, donor e (resting platelets; replicate donor e, pal 20 μM, tat 50 μM): 3; Aggregation after TRAP activation, donor a (TRAP-activated platelets; replicate donor a, TRAP 4 μM, pal 20 μM, tat 50 μM): 73; Aggregation after TRAP activation, donor b (TRAP-activated platelets; replicate donor b, TRAP 4 μM, pal 20 μM, tat 50 μM): 76; Aggregation after TRAP activation, donor c (TRAP-activated platelets; replicate donor c, TRAP 4 μM, pal 20 μM, tat 50 μM): 76; Aggregation after TRAP activation, donor d (TRAP-activated platelets; replicate donor d, TRAP 4 μM, pal 20 μM, tat 50 μM): 75; Aggregation after TRAP activation, donor e (TRAP-activated platelets; replicate donor e, TRAP 4 μM, pal 20 μM, tat 50 μM): 78 |
